Measurements reported in US20070071686A1, “Liquid preparation containing tobramycin” (Pari GmbH, priority 2003, published 2007).

Assay: Physicochemical characterisation of tobramycin solutions (pH, osmolality, dynamic viscosity, surface tension)
Experimental: Thus, aqueous solutions of tobramycin with a pH of 6.0 to 6.5 have a 50% greater viscosity (about 2.9 mPa·s) at a concentration of active agent of 180 mg/ml compared to a solution with 100 mg/ml (about 1.8 mPa·s). […] Under standard conditions, the preparations according to the present invention have a viscosity of about 1.4 to 2.3 mPa·s, and preferably a viscosity in the range of about 1.6 to 2.0 mPa·s. A viscosity of about 1.8 mPa·s is most preferred.
11.08 g of tobramycin, 5.41 g of sulfuric acid (96%), 0.2 g of sodium chloride and 90.95 g of water for injection are used as starting materials. All steps are carried out under aseptic conditions and under nitrogen gas. The water is provided first, to which the sulfuric acid is added. Then sodium chloride and the active agent are added one after the other. The mixture is stirred until complete dissolution of all solid components as determined by visual control. This yields about 100 ml of a solution which has a pH of about 6.0, an osmolality of about 0.22 Osmol/l, a dynamic viscosity of about 1.9 mPa·s and a surface tension of about 71 mN/m. This solution is filtered to sterility and filled into an infusion bottle with a volume of 100 ml. This bottle is tightly closed with a pierceable elastomer stopper and secured with an aluminium cap.
10.88 g of tobramycin, 5.41 g of sulfuric acid (96%), 0.2 g sodium chloride, 0.1 g Tween® 80 and 90.95 g of water for injection are used as starting materials. All steps take place under aseptic conditions and nitrogen gas. The water is provided first to which the sulfuric acid is added. Subsequently, tobramycin is added and dissolved at room temperature. Sodium chloride and Tween® are added to this solution. The mixture is stirred until a clear solution is formed. This yields about 100 ml of a solution which has a pH of about 6.2, an osmolality of about 0.22 Osmol/l, a dynamic viscosity of about 1.9 mPa·s and a surface tension of about 43 mN/m. The solution is filtered to sterility and filled aseptically into single dose containers of polypropylene at 2 ml each. […]

- viscosity (aqueous solution, pH 6.0 to 6.5, 100 mg/ml): about 1.8 mPa·s
- viscosity (aqueous solution, pH 6.0 to 6.5, 180 mg/ml): about 2.9 mPa·s
- viscosity (comparable aqueous solution, 120 mg/ml): about 2.1 mPa·s
Structure (SMILES): NC[C@H]1O[C@H](O[C@H]2[C@H](O)[C@@H](O[C@H]3O[C@H](CO)[C@@H](O)[C@H](N)[C@H]3O)[C@H](N)C[C@@H]2N)[C@H](N)C[C@@H]1O [tobramycin, O-3-amino-3-desoxy-α-D-glucopyranosyl(1→4)-O-[2,6-diamino-2,3,6-tridesoxy-α-D-ribo-hexopyranosyl-(1→6)]-2-deoxystreptamine]
